Measured values: patent US20210244790A1 (priority 2018, published 2021)
Values after ≈ are worked out from the molar mass of the structure shown. Where two headings read alike, the source gives them in different places. Numbered stars: 1 amine (or outer) side, 2 acyl side, 3 side chain; on linkers, the order of the positions; unused ones are H or OH. Bridge positions count the residues as written; N and C are the ends. Square brackets hold non-standard residues; d marks the D form. Peptide text beside a SMILES is read from it. ξ: configuration not given here. ξAsn(3ξ-OH) = NC(=O)C(O)C(N)C(=O)O; X1 = CC(C)CCCC(CC(=O)[*:1])O[*:2]; NMeF = CN[CH](Cc1ccccc1)C(=O)O; NMeV = CN[CH](C(=O)O)C(C)C; Orn = NCCC[CH](N)C(=O)O

Columns and labels:
[1] = tested on: Propionibacterium acnes; test: microbe, parasite or virus in culture; settings: Cutibacterium acnes, read-out: antibacterial activity (MIC) of boric acid alone
[2] = tested on: MRSA; test: Additional cross MIC test using 5% FBS-added CAMHB, with FIC index; settings: concentration of each component in the combination
[3] = tested on: clinically isolated MRSA strain; test: microbe, parasite or virus in culture; settings: Staphylococcus aureus, read-out: anti-MRSA activity (MIC) of boric acid alone
[4] = tested on: MRSA; test: microbe, parasite or virus in culture; settings: Staphylococcus aureus, read-out: MIC in the presence of 5% FBS, Anti-MRSA activity of 3rd generation
[5] = tested on: methicillin-resistant Staphylococcus aureus (MRSA) on the skin; test: Efficacy evaluation test by single dose topical application in murine MRSA skin infection model; type: in vivo, mice; settings: preliminary test
[6] = tested on: MRSA Used in Animal Model; test: microbe, parasite or virus in culture; settings: Staphylococcus aureus
[7] = tested on: MRSA; settings: CAMHB with 5% FBS
[8] = tested on: Bacillus anthracis
[9] = tested on: Propionibacterium acnes; test: Number of cells after 48 hour anaerobic incubation in 5% FBS-supplemented GAM medium; type: cell-based; settings: lotilibcin 0.1 μg/mL alone, initial 2.8 × 10^6
[10] = tested on: MRSA
[11] = read-out: Minimum Inhibitory Concentration Against MRSA Used in Animal Model (MIC), CAMHB, no 5% FBS
[12] = read-out: Minimum Inhibitory Concentration Against MRSA Used in Animal Model (MIC), CAMHB, with 5% FBS

SMILES	MIC [1] [mg/L]	point of synergy (concentration) in table 7 [2] [µg/mL]	MIC [3] [mg/L]	MIC [4] [mg/L]	change in the number of cells (CFUs in skin tissue) ([5]; 1% boric acid alone, single topical dose)	antibacterial efficacy in animal infection models ([5]; boric acid alone 0.1% to 1%)	MIC [6, 11] [mg/L]	MIC [6, 12] [mg/L]	MIC ([6]; read-out: concentration exhibiting antibacterial activity (MIC), used solely, not influenced by presence or absence of serum component (FBS)) [mg/L]	minimum concentration of boric acid necessary for enhancing the anti-MRSA activity of lotilibcin [7] [µg/mL]	Antibacterial activity of lotilibcin (MIC) ([8]; No serum) [mg/L]	Antibacterial activity of lotilibcin (MIC) ([8]; With serum (5% FBS)) [mg/L]	Number of cells After 48 hours [9]	MIC in the presence of 5% FBS, Anti-MRSA activity of 1st generation ([10]; 1st generation bacteria) [mg/L]	MIC in the presence of 5% FBS, Anti-MRSA activity of 3rd generation ([10]; 3rd generation bacteria, test substance alone) [mg/L]	antibacterial efficacy (change in number of CFUs in skin tissue) ([5]; 0.5% lotilibcin alone, single topical dose)	antibacterial efficacy (change in number of CFUs in skin tissue) ([5]; lotilibcin alone 0.02%, 0.2%, 0.5%, single topical dose, 24 hours)
OB(O)O [Boric acid]	1250 (≈ 20.2 mM)	313	2500 (≈ 40.4 mM)	5000	on the same level as or worse than the result of the negative control	no antibacterial efficacy	2500 (≈ 40.4 mM)	2500 (≈ 40.4 mM)	2500 (≈ 40.4 mM)	100							
CC(C)CCCC1CC(=O)NC(CO)C(=O)NC(C(O)C(N)=O)C(=O)NC(CO)C(=O)NCC(=O)N(C)C(Cc2ccccc2)C(=O)NC(CC(C)C)C(=O)NC(CCCN)C(=O)NC(CCC(=O)O)C(=O)NC(CC(N)=O)C(=O)NC(Cc2c[nH]c3ccccc23)C(=O)NC(CCCN)C(=O)N(C)C(C(C)C)C(=O)O1 (centres unmarked) [Lotilibcin, lotilibcin] (S[ξAsn(3ξ-OH)]SG[NMeF]L[Orn]ENW[Orn][NMeV]; linker N-C via X1; configuration not given here)		0.03									1.0	0.1	1.3 × 10^6 CFU/mL	0.25	32	comparable to that of 2% mupirocin	dose-dependent efficacy
C/C(=C\C(=O)OCCCCCCCCC(=O)O)C[C@@H]1OC[C@H](C[C@@H]2O[C@H]2[C@@H](C)[C@H](C)O)[C@@H](O)[C@H]1O [Mupirocin, mupirocin]							0.125 (≈ 0.00025 mM)	0.5 (≈ 0.000999 mM)									
